# From US4707468A, “Polypeptide” (Eisai Co., Ltd., priority 1984, dated 1987)
# pIC50: −log10 of the molar value.
# Experiments:
# mice = assay: Toxicity (minimum lethal dose) in mice; format: in vivo; conditions: administered subcutaneously in mice
# Text: The relationship between the toxicity (minimum lethal dose) of the peptide compound obtained in Examples 1 and 2 of the present invention and the effective dose is shown in Table 4.
# Effective dose and minimum lethal dose
# when administered subcutaneously in mice
# rabbit vas deferens = assay: Opioid activity, rabbit vas deferens method (inhibition of electrically stimulated contraction); format: cell-based; conditions: electric stimulation 0.1 Hz, 1 ms, 90 volt
# Protocol: The opioid activities of the compounds of the invention were examined by the method using rabbit vas deferens according to T. Oka, K. Negishi, M. Suda, T. Matsumiya, T. Inaza and M. Ueki, "Europ. J. Pharmacol.", Vol. 73, 235 (1980). In this test, mature male rabbits were sacrificed by introducing air into an […]. Immediately after death, a laparotomy was conducted and right and left vasa deferens were removed. The semen was pressed out of the ducts into Ringer's solution. A part of each duct was cut ([…] long from an end of the prostrate gland side). The pieces of the deferentaial ducts were suspened by means of a thread in a 6 ml constant-temperature glass cell and stimulated electrioally with an electric stimulation device having platinum electrodes under conditions of 0.1 Hz, 1 ms and 90 volt. A contraction due to the electric stimulation was recorded through a transducer.
# The opioid activity was determined on the basis of the inhibition of the contraction due to the electric stimulation.
# The results are shown in Table 3 in terms of 50% inhibitation concentration (IC50).
# The following compounds obtained in the examples ere tested in the same way as described above.
Compound,Minimum Lethal Dose (mice) [mg/kg],pIC50 (rabbit vas deferens)
"CCNC(=O)[C@@H](CC(C)C)NC(=O)[C@H](CCCNC(=N)N)N(C)C(=O)[C@H](CCCNC(=N)N)NC(=O)[C@H](CC(C)C)NC(=O)[C@H](Cc1ccccc1)NC(=O)CNC(=O)CNC(=O)[C@H](Cc1ccc(O)cc1)NC [Example 1, CH3 Tyr-Gly-Gly-Phe-Leu-Arg-CH3 Arg-D-Leu-NHC2 H5]",100,–
"CN[C@@H](Cc1ccc(O)cc1)C(=O)NCC(=O)NCC(=O)N[C@@H](Cc1ccccc1)C(=O)N[C@@H](CC(C)C)C(=O)N[C@@H](CCCNC(=N)N)C(=O)N(C)[C@@H](CCCNC(=N)N)C(=O)N[C@H](C)C(=O)O [Example 30, CH3 Tyr-Gly-Gly-Phe-Leu-Arg-CH3 Arg-D-Ala-OH]",> 100,–
"CN[C@@H](Cc1ccc(O)cc1)C(=O)NCC(=O)NCC(=O)N[C@@H](Cc1ccccc1)C(=O)N[C@@H](CC(C)C)C(=O)N[C@@H](CCCNC(=N)N)C(=O)N(C)[C@@H](CCCNC(=N)N)C(=O)N(C)[C@@H](C)C(=O)O [Example 31, CH3 Tyr-Gly-Gly-Phe-Leu-Arg-CH3 Arg-CH3 Ala-OH]",> 100,–
"CC[C@H](C)[C@@H](C(=O)O)N(C)C(=O)[C@H](CCCNC(=N)N)N(C)C(=O)[C@H](CCCNC(=N)N)NC(=O)[C@H](CC(C)C)NC(=O)[C@H](Cc1ccccc1)NC(=O)CNC(=O)CNC(=O)[C@H](Cc1ccc(O)cc1)NC [Example 36, CH3 Tyr--Gly--Gly--Phe--Leu--Arg--CH3 Arg--CH3 Ile--OH]",> 100,–
H-Tyr-Gly-Gly-Phe-Leu-Arg-Arg-Ile-Arg-Pro-Lys-Leu-Lys-Trp-Asp-Asn-Gln-OH [dynorphin A (1-17)],–,7.76
